Reference: US11274132B2, “Combined preparations of PKM2 modulators and HMGB1” (Ruprecht-Karls-Universität Heidelberg, priority 2015, dated 2022)
Entries after “also recorded” stand apart in the source; their conditions may differ. Where two headings read alike, the source gives them in different places. Residues, ends and D or L forms follow the SMILES beside them.

Columns and labels:
[1] = CellTiter-Glo Luminescent Cell Viability Assay; format: cell-based, human; conditions: human, CLL cells from a patient, DASA 100 μM, read-out: Viable cells [DASA]
colorectal cancer cells = experiment: Crystal violet cytotoxicity assay, cell lines not given; format: cell-based
Method: (§1) Human colon carcinoma cell lines SW480, HCT116, HT29 and Caco2, the human glioblastoma cell line U251MG and the Natural killer cell line NK-92 Cl were purchased from ATCC. Cell lines were regularly tested for contamination by multiplex PCR performed in the Genomics and Proteomics Core Facility 2 (DKFZ, Heidelberg, Germany). For experiments, cells were cultured for no more than 10 passages. Rho zero cells were generated as described earlier 1. (Gdynia, G. et al. Danger signaling protein HMGB1 induces a distinct form of cell death accompanied by formation of giant mitochondria. Cancer research 70, 8558-8568). Cells used in the experiments were cultured in RPMI (#1640, colon carcinomas, NK cells) or DMEM high glucose (#41965-039, glioblastoma cells) medium. Rho zero cells were generated as described earlier (Gdynia, G. et al. ibd.). Briefly, cells were cultured in RPMI medium (10% FCS, 1% P/S) supplemented with 250 ng/ml ethidiumbromide, 50 μg/ml L-pyruvate and 5 mg/ml uridine over a period of 12 weeks. For cytotoxicity measurements, cells were cultured in 96-well plates, treated with recombinant human HMGB1 protein (Sigma-Aldrich®), glycyrrhizinic acid ((3β, 18α)-30-hydroxy-11, 30-dioxoolean-12-en-3-yl 2-O-β-D-glucopyranuronosyl-β-D-glucopyranosiduronic acid)) (Sigma-Aldrich®), 10 μM (non-toxic) or 100 μM (cytotoxic) P-M2tide (aa sequence: GGAVDDDpYAQFANGG; #BML-P239-0001; Enzo Life Sciences) or 100 μM ML-265 (Cayman Chemical), then cell viability was assessed by crystal violet staining (Gillies, R. J., Didier, N. & Denton, M. Determination of cell number in monolayer cultures. Analytical biochemistry 159, 109-113 (1986)). Malic enzyme 1 knock-down was performed with 40 nM siRNA using lipofectamine in 6-well plates followed by treatment with 80 nM HMGB1 for 72 h. Sequences of siRNA were: ME1, 5′-[…]-3′ and scrambled control 5′-CCUGCAGUACUUCAAGCGGtt-3′. PKM2 siRNA was from Santa Cruz. A nonspecific siRNA served as control (Dharmacon, Schwerte, Germany). For overexpression of PKM2 or ME1, cells were transfected with pCMV-PKM2 (Sino Biological Inc., Beijing, China) or pCMV-ME1 (OriGene, Rockville, Md., USA) using Lipofectamine 2000. For cytotoxicity measurements confluent cells were cultured in 96-well plates if not otherwise indicated. Cytotoxic activity of supernatants from stimulated NK cells was assessed in 96-well plates for 3 days with RPMI medium as reference. Recombinant human HMGB1 (10 ng, Sigma) suited as positive control. For mass isotopomer assays, cells were cultured in glucose- or glutamine-free medium supplemented with either uniformly labeled (U)-13C-D-glucose or U-13C-glutamine (Sigma-Aldrich®).

PKM2 = PKM2 (Homo sapiens, UniProt P14618); experiment: Immunoprecipitation with 125I-labeled HMGB1 (PKM2 pull-down); format: binding; set-up: endogenous in cells; conditions: P-M2tide at non-cytotoxic concentrations
Sequence of PKM2 (P14618 whole entry): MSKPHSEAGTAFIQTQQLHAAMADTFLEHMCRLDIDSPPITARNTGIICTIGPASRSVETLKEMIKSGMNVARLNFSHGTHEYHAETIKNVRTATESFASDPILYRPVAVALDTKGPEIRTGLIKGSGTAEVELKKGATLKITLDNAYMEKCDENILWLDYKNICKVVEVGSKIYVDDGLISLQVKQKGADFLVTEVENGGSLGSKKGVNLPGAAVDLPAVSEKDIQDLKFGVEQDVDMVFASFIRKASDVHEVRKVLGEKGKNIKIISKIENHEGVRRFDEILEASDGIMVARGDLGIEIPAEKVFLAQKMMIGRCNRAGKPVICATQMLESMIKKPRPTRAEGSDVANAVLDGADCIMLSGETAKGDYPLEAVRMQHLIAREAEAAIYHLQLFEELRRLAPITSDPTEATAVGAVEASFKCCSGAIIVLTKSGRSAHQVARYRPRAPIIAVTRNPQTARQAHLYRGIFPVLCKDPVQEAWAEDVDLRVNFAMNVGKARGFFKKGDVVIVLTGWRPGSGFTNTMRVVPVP
Method: FIG. 6: Co-administration of HMGB1 and an activator (A left and right) or an inhibitor (B) of PMK2 has a synergistic cytotoxic effect, as determined in the crystal violet cytotoxicity assay (assays were performed in duplicate, * indicates p<0.05). (C) Immunoprecipitation with I125-labeled HMGB1 (PKM2 pull-down). HMGB1, like phosphotyrosine-peptides, binds close to the allosteric center of PKM2, leading to a competition in binding.

CLL cells = experiment: CellTiter-Glo Luminescent Cell Viability Assay; format: cell-based, human
[2] = test system: HCT116 colorectal cancer cells; experiment: Crystal violet cytotoxicity assay; format: cell-based
Method: as §1

HT29 cells = experiment: Crystal violet cytotoxicity assay; format: cell-based; conditions: 72 h
Method: as §1

[3] = test system: SW480 colorectal cancer cells; experiment: Crystal violet cytotoxicity assay; format: cell-based
Method: as §1

tetrameric PK M2 = target: T1, tetrameric PK M2 (Homo sapiens, UniProt P14618); experiment: Pyruvate kinase enzymatic assay in cytosolic fractions / homogenates (low PEP); format: cell-based; conditions: glycyrrhizin 200 μM
T1 construct: Activities of glycolytic enzymes measured in cytosolic fractions after treatment with HMGB1; endogenous in cells; host or cells: SW480, HCT116, HT29 cytosolic fractions; homogenates of human colon cancer tissue slices
T1 sequence (P14618 2-531): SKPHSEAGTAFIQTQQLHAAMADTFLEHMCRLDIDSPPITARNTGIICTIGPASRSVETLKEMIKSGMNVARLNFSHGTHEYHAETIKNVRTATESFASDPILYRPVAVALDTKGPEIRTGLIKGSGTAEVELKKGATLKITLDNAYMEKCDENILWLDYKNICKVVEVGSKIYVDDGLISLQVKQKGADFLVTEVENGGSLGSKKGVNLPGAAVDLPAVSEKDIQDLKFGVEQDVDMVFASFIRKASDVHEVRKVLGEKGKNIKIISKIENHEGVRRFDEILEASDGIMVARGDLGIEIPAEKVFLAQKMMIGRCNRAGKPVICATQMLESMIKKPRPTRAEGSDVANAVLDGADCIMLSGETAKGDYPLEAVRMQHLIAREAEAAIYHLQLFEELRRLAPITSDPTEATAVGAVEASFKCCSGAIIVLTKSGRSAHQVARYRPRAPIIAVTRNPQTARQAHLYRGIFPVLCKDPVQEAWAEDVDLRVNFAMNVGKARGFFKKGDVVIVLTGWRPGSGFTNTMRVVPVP
Method: Enzymatic activities of respiratory chain complexes, glycolytic proteins and malic enzyme were determined in subcellular fractions as previously described (Kaminski, M. M. et al. T cell activation is driven by an ADP-dependent glucokinase linking enhanced glycolysis with mitochondrial reactive oxygen species generation. Cell reports 2, 1300-1315 (2012).Bruncko, M. et al. Naphthamidine urokinase plasminogen activator inhibitors with improved pharmacokinetic properties. Bioorganic & medicinal chemistry letters 15, 93-98, (2005)) using a computer-tuneable spectrophotometer (Spectramax Plus Microplate Reader, Molecular Devices; Sunny Vale, Calif., USA) operating in the dual wavelength mode; samples were analyzed in temperature-controlled 96-well plates in a final volume of 300 μl. Activity of ME1 was recorded in presence of increasing amounts of malic acid (0.02, 0.05, 0.1, 0.2, 0.5, 1, 2.5 mM). Vmax and Km were calculated using a Hanes-Woolf plot. In the presence of high substrate levels the Km for malic acid was similar in all three tested cell lines (SW480: 0.32 mM, HCT116: 0.30 mM, HT29: 0.31 mM). Vmax (mU/mg protein) values were 3.38 (SW480, 0.5-5.0 mM malic acid), 5.77 (HCT116, 0.5-5.0 mM malic acid) and 3.68 (HT29, 0.5-5.0 mM malic acid) and 1.68 (SW480, 0.02-0.2 mM malic acid), 3.24 (HCT116, 0.02-0.2 mM malic acid) and 1.89 (HT29, 0.02-0.2 mM malic acid). Two isoforms of ME1, mitochondrial (NAD(P)+dependent) ME3 and mitochondrial (NAD+dependent) ME2, had very low or no detectable activities (data not shown).

[4] = test system: glucose flux (glycolysis); experiment: Glycolysis: conversion of 5-3H-Glucose to 3H2O; format: cell-based, human; conditions: SW480 cells; co-treatment, glycyrrhizin 200 μM
Method: Lactate derived from the metabolism of ^13C6-D-glucose or ^13C5-glutamine was determined by comparing the CH3 group intensities of labeled and non-labeled lactate in NMR. Mitochondrial respiration was measured using an Oroboros 1 oxygraph system. Glycolysis was measured by monitoring the conversion of 5-^3H-Glucose to ^3H2O. Incorporation of ^14C into RNA ribose from U-^14C-labelled glucose was taken as glucose utilization in the pentose phosphate shunt. Enzymatic activities were determined in subcellular fractions as previously described^24.

[5] = glycyrrhizin as inhibitor of HMGB1
[6] = supernatants of anti-Nkp30 stimulated blood NK cells, glycyrrhizin 200 μM, 72 h
[7] = 72 h, NK cell derived HMGB1 approx. 16 nM, recombinant human HMGB1 80 nM

O=S(=O)(c1ccc2c(c1)OCCO2)N1CCN(S(=O)(=O)c2c(F)cccc2F)CC1 [DASA, 1-(2,6-Difluorophenylsulfonyl)-4-(2,3-dihydrobenzo[b][1,4]dioxin-6-ylsulfonyl)piperazine]
viability at 100 μM ([1]; patient P0010, sample 13PB0501): 100%
viability at 100 μM ([1]; patient P0010, sample 14PB0132): 67%
viability at 100 μM ([1]; patient P0074, sample 14BP0079): 37%
viability at 100 μM ([1]; patient P0369, sample 13PB0555): 100%
viability at 100 μM ([1]; patient P0460, sample 14PB0471): 72%
viability at 100 μM ([1]; patient P0641, sample 13PB0500): 100%
viability at 100 μM ([1]; patient P0641, sample 13PB0649): 88%
viability at 100 μM ([1]; patient P0645, sample 13PB0473): 90%
viability at 100 μM ([1]; patient P0701, sample 14PB0451): 100%

[N-]=[N+]=CC(=O)CC[C@H](N)C(=O)O [L-DON, 6-diazo-5-oxo-L-norleucine]
cytotoxicity of glutaminolysis inhibition together with HMGB1 (colorectal cancer cells; L-DON 1 μM with HMGB1, glucose deprived and glucose supplemented medium): synergistic cytotoxicity

Cn1c2cc([S+](C)[O-])sc2c2cnn(Cc3cccc(N)c3)c(=O)c21 (stereo not shown) [ML-265, 6-(3-aminobenzyl)-4-methyl-2-(methylsulfinyl)-4,6-dihydro-5H-thieno[2′,3′:4,5]pyrrolo[2,3-d]pyridazin-5-one]
induction of cell death (colorectal cancer cells; 100 μM, 24 h): did not induce cytotoxicity; also recorded: not able to induce cell death
competition with binding of HMGB1 to PKM2 (PKM2): did not compete
competition with binding of HMGB1 to PKM2 (PKM2; listed as ML265): does not compete

CC(C)[C@H](NC(=O)[C@H](C)NC(=O)CNC(=O)CN)C(=O)N[C@@H](CC(=O)O)C(=O)N[C@@H](CC(=O)O)C(=O)N[C@@H](CC(=O)O)C(=O)N[C@@H](Cc1ccc(OP(=O)(O)O)cc1)C(=O)N[C@@H](C)C(=O)N[C@@H](CCC(N)=O)C(=O)N[C@@H](Cc1ccccc1)C(=O)N[C@@H](C)C(=O)N[C@@H](CC(N)=O)C(=O)NCC(=O)NCC(=O)O [P-M2tide, GGAVDDDpYAQFANGG] (HELM PEPTIDE1{G.G.A.V.D.D.D.[O=C([C@H](Cc1ccc(OP(=O)(O)O)cc1)N[*:1])[*:2]].A.Q.F.A.N.G.G}$$$$V2.0)
toxicity (colorectal cancer cells; 10 μM P-M2tide): non-toxic
toxicity (colorectal cancer cells; 100 μM P-M2tide): cytotoxic
Viable cells [PM2-tide] (CLL cells; patient P0010, sample 13PB0501, PM2-tide 100 μM, 250 µM): 100%
Viable cells [PM2-tide] (CLL cells; patient P0010, sample 14PB0132, PM2-tide 100 μM, 250 µM): 75%
Viable cells [PM2-tide] (CLL cells; patient P0074, sample 14BP0079, * responding to 100 μM PM2-tide): 46%*
Viable cells [PM2-tide] (CLL cells; patient P0369, sample 13PB0555, PM2-tide 100 μM, 250 µM): 100%
Viable cells [PM2-tide] (CLL cells; patient P0460, sample 14PB0471, * responding to 100 μM PM2-tide): 56%*
Viable cells [PM2-tide] (CLL cells; patient P0641, sample 13PB0500, PM2-tide 100 μM, 250 µM): 100%
Viable cells [PM2-tide] (CLL cells; patient P0641, sample 13PB0649, PM2-tide 100 μM, 250 µM): 93%
Viable cells [PM2-tide] (CLL cells; patient P0645, sample 13PB0473, PM2-tide 100 μM, 250 µM): 91%
Viable cells [PM2-tide] (CLL cells; patient P0701, sample 14PB0451, PM2-tide 100 μM, 250 µM): 100%

CC1(C)[C@@H](O[C@H]2O[C@H](C(=O)O)[C@@H](O)[C@H](O)[C@H]2O[C@@H]2O[C@H](C(=O)O)[C@@H](O)[C@H](O)[C@H]2O)CC[C@]2(C)[C@H]3C(=O)C=C4[C@@H]5C[C@@](C)(C(=O)O)CC[C@]5(C)CC[C@@]4(C)[C@]3(C)CC[C@@H]12 [glycyrrhizin, (3β, 18α)-30-hydroxy-11, 30-dioxoolean-12-en-3-yl 2-O-β-D-glucopyranuronosyl-β-D-glucopyranosiduronic acid, reference compound]
blocking of HMGB1 cytotoxic effects [2, 5]: significantly blocked
effect on NK cell-dependent cytotoxic effect [2, 6]: diminished
effect on NK cell-dependent cytotoxic effect (HT29 cells; supernatants of anti-Nkp30 stimulated blood NK cells, glycyrrhizin 200 μM): diminished
blocking of HMGB1 cytotoxic effects [3, 5]: significantly blocked
effect on NK cell-dependent cytotoxic effect [3, 6]: not changed
restoration of tetrameric PK M2 activity inhibited by NK cell supernatant (tetrameric PK M2): completely restored
reversal of HMGB1-induced metabolic shift [4]: partly reversed

CC[C@H]1/C=C/C=C/C[C@@H](C)[C@H](O)[C@@](C)(O)C(=O)[C@@H](C)[C@H](O)[C@@H](C)C(=O)[C@@H](C)[C@H](O)[C@@H](C)/C=C/C(=O)O[C@@H]2[C@H](C)[C@H](CC1)O[C@]1(CC[C@H](C)[C@H](C[C@@H](C)O)O1)[C@H]2C [oligomycin, reference compound]
cell death ([2]; oligomycin 10 ng/ml, 72 h): rapid cell death
cell death ([3]; oligomycin 10 ng/ml, 72 h): rapid cell death

HPLC-purified HMGB1: HPLC-purified HMGB1 from the supernatant of Nkp30 stimulated blood donor NK cells
cytotoxicity (colorectal cancer cells; 80 nM, 24 h, diluted in IgG1 control supernatant): substantial cytotoxicity

NK cell derived HMGB1: HMGB1 isolated from the cytosolic granules of the NK cell line NK-92 CI by HPLC (eluate #38)
cell death (cytotoxicity) [2, 7]: efficiently killed
side-by-side cytotoxicity versus recombinant HMGB1 (HT29 cells; 80 nM or 160 nM): higher cytotoxicity than recombinant HMGB1
cell death (cytotoxicity) [3, 7]: efficiently killed
